{
  "source": "patent US12521419B2",
  "about": "“Use of anti-aging glycopeptides to enhance pancreatic cell health, survival and improve transplant outcome” (Protokinetix Inc., priority 2014, dated 2026)",
  "key": {"[1]": {"test_system": "human islets", "test": "Static GSIS assay (stimulation index)", "type": "cell-based", "conditions": "day 3, tacrolimus present", "text": "Similar experimental conditions were recreated (human islets cultured with and without AAGP™ and exposed to tacrolimus) and aliquots of approximately 100 IEQ were collected on day 3 for each corresponding group to undergo s-GSIS assay and simultaneous intracellular insulin content. Islets were then extensively washed to remove tacrolimus and left in culture for 4 more days, when sampling and comparative testing was repeated on day 7."}, "[2]": {"test_system": "mouse splenocytes", "test": "Allogeneic mixed lymphocyte reaction, T cell proliferation by CFSE staining", "type": "cell-based", "conditions": "vs IgG control, n=4", "text": "The assay measures T cell proliferative response by levels of CFSE staining."}, "[3]": {"test_system": "human islets transplanted under the kidney capsule", "test": "Intra-graft apoptosis 24 h post-transplant (cleaved caspase-3, TUNEL)", "type": "in vivo, immunodeficient mice", "conditions": "graft 24 h after transplant", "procedure": "Apoptosis is measured in all groups using a cleaved caspase-3 spectrophotometric assay and Terminal deoxynucleotidyl transferase dUTP nick end labeling (TUNEL) staining. All determinations are made on normalized groups of 100 IEQ and their corresponding culture media.\nFrozen media samples are used to determine cleaved caspase-3 increase using a spectrophotometric assay (EMD Millipore™. Billerica, MA, USA). Again, CMRL culture media alone with additives and no cells is used as a control, and results are expressed as fold-change increase compared to the control media.\nFor TUNEL staining (DeadEnd™ Apoptosis Detection System, Promega, Madison, WI), islets are fixed in formalin, processed and embedded in paraffin. Co-staining is performed to identify the graft (insulin), apoptotic cells and all nuclei present in the field. Apoptosis is quantified by percentage of positive TUNEL stained area using imageJ software.\nThree mice per group underwent nephrectomy and are euthanized 24 hr post-transplant to perform acute determination of proinflammatory cytokines, cleaved capase-3 and TUNEL in the graft area. In all cases the islet graft is excised from the kidney, weighed, flash frozen in liquid nitrogen and stored at −80° C. […]"}, "[4]": {"test_system": "human islets transplanted under the kidney capsule", "test": "Long-term graft function of minimal mass human islet transplant (blood glucose, IPGTT, graft insulin content)", "type": "in vivo, immunodeficient mice", "text": "Eight to 12 week immunodeficient mice (B6.129S7-Rag1^tm1Mom) are obtained from the Jackson Laboratory (Bar Harbor, ME, USA) and housed under specific pathogen-free conditions with access to food and water ad libitum. Animals are cared for according to the guidelines of the Canadian Council on Animal Care, and ethical approval is obtained from the animal welfare committee at the University of Alberta.\nAnimals are considered diabetic after two consecutive blood glucose measurements are documented≥18 mmol/L.\nTen animals per group received approximately 1,000 IEQ human islets transplanted under the capsule of the left kidney as described previously (19).\nNon-fasting blood glucose is monitored in the remaining 7 mice per group three times a week using a portable glucometer (OneTouch Ultra 2, LifeScan, Canada) over 60 days. Normoglycemia is defined when two consecutive readings are below 11.3 mmol/L.\nIntraperitoneal Glucose-Tolerance Tests (IPGTT) are conducted 60 days post-transplant to evaluate the capacity of islets to respond to a glucose bolus (3 g/kg) after overnight fast. Blood glucose levels are monitored at baseline (Time 0, 15, 30, 60, 90 and 120 minutes post-injection). All results are compared to blood glucose profiles of naive control mice.\nNon-fasting blood glucose levels are recorded for 1 week following nephrectomy. Likewise, the native pancreas is excised at the terminal endpoint, fixed in 10% formalin and analyzed with immunohistochemistry to confirm absence of mouse insulin staining, thus, eliminating residual or regeneration of native pancreatic beta cell function.\nPreserved grafts are then processed as previously described and residual insulin content is determined using human insulin ELISA as a measure of surviving islets."}, "[5]": {"test_system": "syngeneic islet transplant", "test": "Syngeneic full mass islet transplant with continuous tacrolimus treatment", "type": "in vivo, mouse", "text": "FIG. 11 illustrates the post-transplant graft function in immunodefficient mice receiving minimal human islet mass (˜1000 IEQ). Islets were previously treated with AAGP™ and tracrolimus accordingly. […] The dotted line indicates graft recovery nephrectomy on day 60. B. Intraperitoneal glucose tolerance test (IPGTT) to evaluate metabolic response after receiving a glucose bolus. C. Insulin content of removed grafts after 60 days of transplant as an indication of residual islet mass. Data points represent mean±SEM adjusted per gram of tissue, (Tac− n=6, Tac+ n=3 and Tac+AAGP™ n=7), *p<0.05, **p<0.01 and ***p<0.001. D and E. Post-transplant graft function in mice receiving syngeneic full mass (˜500 IEQ) islet transplant. AAGP™ was added to the culture media 1 hour prior to transplant and tacrolimus was administered via a subcutaneous osmotic pump (implanted during the same procedure) at a continuous rate of 1 mg/kg/day. D. Pooled blood glucose profiles of animal over 40 days with clear dysfunction for Tac+ islets during the presence of Tac. Vertical dotted line indicates tacrolimus treatment cessation and marks a gradual recovery of Tac+ grafts. Horizontal continuous line at y=11 indicates the normoglycemia limit. Graft recovery nephrectomy was again performed on day 30. E. Mean time-to-euglycemia after transplant showing Tac+AAGP™ mice reversing diabetes earlier (p<0.001, log-rank, Mantel-cox test). […] These differences were not observed in the Tac+AAGP™ group.\nTo further support these findings a transplant experiment was performed in a syngeneic diabetic mouse transplant model with continuous treatment with tacrolimus to resemble clinical practice.\nTo make our experiments more clinically relevant, a new in vivo syngeneic mouse transplant model was performed, with tacrolimus as a continuous treatment by means of a subcutaneous osmotic pump. It was observed that the functional impairment of transplanted islets occurred immediately after starting administration of the CNI and lasted during the entire treatment period (7 days)."}},
  "data": [
    {"smiles": "C=CC[C@@H]1/C=C(\\C)C[C@H](C)C[C@H](OC)[C@H]2O[C@@](O)(C(=O)C(=O)N3CCCC[C@H]3C(=O)O[C@H](/C(C)=C/[C@@H]3CC[C@@H](O)[C@H](OC)C3)[C@H](C)[C@@H](O)CC1=O)[C@H](C)C[C@@H]2OC.O", "note": "[Tac+, tacrolimus]", "values": [
      {"measurement": "stimulation index (s-GSIS)", "setting": "[1]", "result": 1.4},
      {"measurement": "T cell proliferation (CD8+ and CD4+)", "setting": "[2]", "result": "significantly decreased"},
      {"measurement": "cleaved caspase-3, fold-change increase relative to kidneys of naïve mice", "setting": "[3]; n=3", "result": 3.14},
      {"measurement": "percentage of TUNEL positive cells", "setting": "[3]; control 14.9%", "result": 53.3, "unit": "%"},
      {"measurement": "IPGTT AUC", "setting": "[4]; 60 days post-transplant, glucose bolus 3 g/kg, Tac− 92.63, naïve 71.43", "result": 149.8},
      {"measurement": "insulin content of recovered graft", "setting": "[4]; after 60 days of transplant", "result": 30.86, "unit": "ng/mL"},
      {"measurement": "blood glucose over 60 days post-transplant", "setting": "[4]; marginal islet mass model, n=7 per group", "result": "all mice remained hyperglycemic"},
      {"measurement": "graft function / period to achieve euglycemia", "setting": "[5]; AAGP in culture media 1 hour prior to transplant, tacrolimus 1 mg/kg/day by osmotic pump", "result": "unable to effectively secrete insulin and return animals to euglycemic state"},
      {"measurement": "IPGTT AUC under tacrolimus treatment", "setting": "[5]; initial IPGTT (7 days), tacrolimus 1 mg/kg/day", "result": 101}
    ]}
  ]
}
